Laboratory results from PubChem BioAssay AID330 (DTP/NCI, 2004).
Several values for one entry are separate records, joined by “and”; a condition that tells them apart may be missing. Equal values may be shown once. Toxic doses and inconclusive results are not listed. The calls were made as follows: active = survival T/C of 150% or more; inactive = T/C below 125% in these data.

Test system: P388 leukemia ip, CD2F1 mice, survival T/C
Test: NCI In Vivo Anticancer Drug Screen. Data for tumor model P388 Leukemia (intraperitoneal) in CD2F1 (CDF1) mice
Details: endpoint: median survival time, higher = longer survival
How it was run: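 Mice carrying the transplanted tumor received test compound or vehicle. Survival was recorded in each group, and the value is the treated-group measurement divided by that of the vehicle-treated control group.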

[1] = dose: 60.0 mg/kg/injection, schedule: Q01DX005 (ip), vehicle: saline with Tween-80
[2] = dose: 120.0 mg/kg/injection, schedule: Q01DX005 (ip), vehicle: saline with Tween-80
[3] = dose: 240.0 mg/kg/injection, schedule: Q01DX005 (ip), vehicle: saline with Tween-80
[4] = dose: 50.0 mg/kg/injection, schedule: Q04DX003 (ip), vehicle: saline with Tween-80
[5] = dose: 25.0 mg/kg/injection, schedule: Q01DX009 (ip), vehicle: saline
[6] = dose: 50.0 mg/kg/injection, schedule: Q01DX005 (ip), vehicle: Klucel (hydroxypropylcellulose) (HPC)
[7] = dose: 100.0 mg/kg/injection, schedule: Q01DX005 (ip), vehicle: Klucel (hydroxypropylcellulose) (HPC)
[8] = dose: 200.0 mg/kg/injection, schedule: Q01DX005 (ip), vehicle: Klucel (hydroxypropylcellulose) (HPC)
[9] = dose: 60.0 mg/kg/injection, schedule: Q01DX005 (ip), vehicle: saline
[10] = dose: 120.0 mg/kg/injection, schedule: Q01DX005 (ip), vehicle: saline
[11] = dose: 50.0 mg/kg/injection, schedule: Q01DX005 (ip), vehicle: saline with Tween-80
[12] = dose: 100.0 mg/kg/injection, schedule: Q01DX005 (ip), vehicle: saline with Tween-80
[13] = dose: 200.0 mg/kg/injection, schedule: Q01DX005 (ip), vehicle: saline with Tween-80
[14] = dose: 60.0 mg/kg/injection, schedule: Q01DX005 (ip), vehicle: Klucel (hydroxypropylcellulose) (HPC)
[15] = dose: 120.0 mg/kg/injection, schedule: Q01DX005 (ip), vehicle: Klucel (hydroxypropylcellulose) (HPC)
[16] = dose: 240.0 mg/kg/injection, schedule: Q01DX005 (ip), vehicle: Klucel (hydroxypropylcellulose) (HPC)
[17] = dose: 100.0 mg/kg/injection, schedule: Q01DX009 (ip), vehicle: Klucel (hydroxypropylcellulose) (HPC)
[18] = dose: 200.0 mg/kg/injection, schedule: Q01DX009 (ip), vehicle: Klucel (hydroxypropylcellulose) (HPC)
[19] = dose: 12.5 mg/kg/injection, schedule: Q01DX005 (ip), vehicle: saline with Tween-80
[20] = dose: 25.0 mg/kg/injection, schedule: Q01DX005 (ip), vehicle: saline with Tween-80

Measured: T/C

[N-]=[N+]=CC(=O)CCCCC1=CCCC1=O
inactive: dose: 31.75 mg/kg/injection, schedule: Q01DX001 (ip), vehicle: saline with Tween-80 103 % of control | dose: 63.5 mg/kg/injection, schedule: Q01DX001 (ip), vehicle: saline with Tween-80 93 % of control | dose: 127.0 mg/kg/injection, schedule: Q01DX001 (ip), vehicle: saline with Tween-80 94 % of control

CCOC(=O)C1=C(C)OC(C)(/N=C(\C#N)C(=O)OC)C1c1ccccc1 (configuration not stated)
inactive: [1] 93 % of control | [2] 95 % of control | [3] 98 % of control

O=C(CC(=NCC(O)CN=C(CC(=O)c1ccccc1)c1ccccc1)c1ccccc1)c1ccccc1.[Ni] (configuration not stated)
inactive: dose: 25.0 mg/kg/injection, schedule: Q04DX003 (ip), vehicle: saline with Tween-80 94 % of control | [4] 94 % of control | dose: 100.0 mg/kg/injection, schedule: Q04DX003 (ip), vehicle: saline with Tween-80 87 % of control | dose: 200.0 mg/kg/injection, schedule: Q04DX003 (ip), vehicle: saline with Tween-80 86 % of control

CC(CCCN)Nc1cc2c(c3cccnc13)OCCO2 (configuration not stated)
inactive: dose: 6.25 mg/kg/injection, schedule: Q01DX009 (ip), vehicle: saline 90 % of control | dose: 12.5 mg/kg/injection, schedule: Q01DX009 (ip), vehicle: saline 86 % of control | [5] 100 % of control

c1ccc2nc3c(nc2c1)CCCC3
inactive: [6] 96 % of control | [7] 109 % of control | [8] 100 % of control

CCC1C(=O)COC1=O (configuration not stated)
inactive: [6] 99 % of control | [7] 99 % of control | [8] 99 % of control

O=C(NC(CCS(=O)(=O)NO)C(=O)OCc1ccccc1)OCc1ccccc1 (configuration not stated)
inactive: dose: 12.5 mg/kg/injection, schedule: Q01DX009 (ip), vehicle: other 100 % of control | dose: 25.0 mg/kg/injection, schedule: Q01DX009 (ip), vehicle: other 95 % of control | dose: 50.0 mg/kg/injection, schedule: Q01DX009 (ip), vehicle: other 109 % of control | dose: 100.0 mg/kg/injection, schedule: Q01DX009 (ip), vehicle: other 95 % of control | dose: 200.0 mg/kg/injection, schedule: Q01DX009 (ip), vehicle: other 92 % of control

COC1(C)C(=O)N(C)C1c1ccccc1 (configuration not stated)
inactive: [1] 100 % of control | [2] 97 % of control | [3] 100 % of control

COc1cc(/C=C(/NC(=O)c2ccccc2)C(O)=C(C#N)C#N)ccc1O
inactive: [9] 95 % of control | [10] 91 % of control

O=c1ccc2ccc3[nH]onc3c2c1
inactive: [11] 100 % of control | [12] 93 % of control | [13] 88 % of control

O=C1c2ccccc2C(=O)N1CS(=O)(=O)CN1C(=O)c2ccccc2C1=O
inactive: dose: 100.0 mg/kg/injection, schedule: Q04DX003 (ip), vehicle: saline 97 % of control | dose: 200.0 mg/kg/injection, schedule: Q04DX003 (ip), vehicle: saline 93 % of control | dose: 400.0 mg/kg/injection, schedule: Q04DX003 (ip), vehicle: saline 97 % of control

COc1cc([Se]c2ccccc2)ccc1N(C)C
inactive: dose: 30.0 mg/kg/injection, schedule: Q01DX005 (ip), vehicle: Klucel (hydroxypropylcellulose) (HPC) 101 % of control | [14] 107 % of control | [15] 100 % of control | [16] 113 % of control

Cc1oc2ccccc2c(=O)c1CN1CCN(c2ccccn2)CC1
inactive: [9] 101 % of control | [10] 101 % of control

O/N=C1C=C/C(=C/c2ccccc2)c2ccccc2/1
inactive: [6] 96 % of control | [7] 92 % of control | [8] 92 % of control

C/C(C(=O)NC1CC1)=C(\C)c1ccc(Cl)cc1
inactive: dose: 50.0 mg/kg/injection, schedule: Q04DX002 (ip), vehicle: Klucel (hydroxypropylcellulose) (HPC) 100 % of control | dose: 100.0 mg/kg/injection, schedule: Q04DX002 (ip), vehicle: Klucel (hydroxypropylcellulose) (HPC) 103 % of control | dose: 200.0 mg/kg/injection, schedule: Q04DX002 (ip), vehicle: Klucel (hydroxypropylcellulose) (HPC) 102 % of control

CC(C)S(=O)(=O)c1ccc(Cl)cc1[N+](=O)[O-]
inactive: dose: 50.0 mg/kg/injection, schedule: Q01DX009 (ip), vehicle: Klucel (hydroxypropylcellulose) (HPC) 100 % of control | [17] 99 % of control | [18] 99 % of control

OC(c1cc(-c2ccccc2)nc2c1ccc1ccccc12)C1CCCCN1 (configuration not stated)
inactive: [19] 101 % of control | [20] 97 % of control | [11] 100 % of control | [12] 100 % of control | [13] 107 % of control

CCN(CC)c1ccc(NC2=CC(=O)C(Nc3ccc(N(CC)CC)cc3)=CC2=O)cc1
inactive: [11] 91 % of control | [12] 89 % of control | [13] 89 % of control

O=C(NN1C(=O)C2=Cc3ccccc3OC2=NC1c1ccccc1O)c1ccncc1 (configuration not stated)
inactive: dose: 100.0 mg/kg/injection, schedule: Q01DX001 (ip), vehicle: saline 96 % of control | dose: 200.0 mg/kg/injection, schedule: Q01DX001 (ip), vehicle: saline 98 % of control | dose: 400.0 mg/kg/injection, schedule: Q01DX001 (ip), vehicle: saline 94 % of control

CCCNN1CCN(c2ccncc2S(=O)(=O)N2CCCCC2)CC1
inactive: [14] 98 % of control | [15] 99 % of control | [16] 94 % of control

Cc1cc(C)c2ccc(C)c(N)c2n1
inactive: [11] 99 % of control | [12] 92 % of control | [13] 99 % of control

N#CC(OC(=O)c1ccccc1)C(OC(=O)c1ccccc1)C(OC(=O)c1ccccc1)C(COC(=O)c1ccccc1)OC(=O)c1ccccc1 (configuration not stated)
inactive: dose: 6.25 mg/kg/injection, schedule: Q01DX005 (ip), vehicle: saline with Tween-80 97 % of control | [19] 95 % of control | [20] 86 % of control

COc1nc(N2CCNCC2)nc2c1CCCC2
inactive: [9] 93 % of control | [10] 103 % of control

O=C1c2ccccc2C(=O)c2c1ccc(C(=O)O)c2-c1ccc2ccccc2c1
inactive: [17] 101 % of control | [18] 116 % of control | dose: 400.0 mg/kg/injection, schedule: Q01DX009 (ip), vehicle: Klucel (hydroxypropylcellulose) (HPC) 117 % of control

COc1cc(C2NCCc3cc4c(cc32)OCO4)cc(OC)c1OC (configuration not stated)
inactive: [11] 100 % of control | [12] 100 % of control

O=C1C=Cc2ccc(O)cc2C1=O
inactive: dose: 1.25 mg/kg/injection, schedule: Q01DX009 (ip), vehicle: saline 100 % of control | dose: 1.25 mg/kg/injection, schedule: Q04DX003 (ip), vehicle: saline with Tween-80 90 % of control | dose: 2.5 mg/kg/injection, schedule: Q01DX009 (ip), vehicle: saline 110 % of control | dose: 2.5 mg/kg/injection, schedule: Q04DX003 (ip), vehicle: saline with Tween-80 109 % of control | dose: 5.0 mg/kg/injection, schedule: Q04DX003 (ip), vehicle: saline with Tween-80 109 % of control and 95 % of control

O=C(CCN1CC1)OCCOC(=O)CCN1CC1
active: dose: 25.0 mg/kg/injection, schedule: Q04DX003 (ip), vehicle: saline 159 % of control | [4] 150 % of control | dose: 50.0 mg/kg/injection, schedule: Q04DX003 (ip), vehicle: saline 181 % of control | dose: 75.0 mg/kg/injection, schedule: Q04DX003 (ip), vehicle: saline with Tween-80 166 % of control

S=c1cn[nH]c2ccc(S)cc12
inactive: [11] 88 % of control | [12] 99 % of control | [13] 97 % of control

COc1cc2cnc(-c3ccc(Cl)c(Cl)c3)cc2cc1OC
inactive: [5] 100 % of control | dose: 50.0 mg/kg/injection, schedule: Q01DX009 (ip), vehicle: saline 97 % of control | dose: 100.0 mg/kg/injection, schedule: Q01DX009 (ip), vehicle: saline 89 % of control
